Assay results reported in patent publication US20230192699A1, “COMPOUNDS AS CASEIN KINASE INHIBITORS” (GRITSCIENCE BIOPHARMACEUTICALS CO., LTD., priority 2020, published 2023).

Key:
[1] = test system: MDA-MB-231 cells (breast cancer cells); assay: Transwell cell migration assay; type: cell-based; settings: MDA-MB-231, 24 h; for relative migration (%) of cells: FIG. 61; for migrated cells: FIGS. 62-67
Method: MDA-MB-231 cells (breast cancer cells) were starved in 0.5% serum-DMEM for 8 hours. For the migration assay, a total of 5×10^4cells were suspended in 500 μL of serum-free DMEM medium and seeded into the upper chamber of a […] pore size insert. Then, 750 μL of DMEM (containing 10% FBS) with or without the compound of the present application was added to the lower compartment. After incubation at 37° C. for 24 h, migrated cells were washed with PBS, fixed in 4% PFA and stained for 30 min in crystal violet solution (0.1% crystal violet). […] Each insert was photographed in 3 random fields at a magnification of 40×.

[2] = test system: MDA-MB-231 cells; assay: Cell proliferation assay (crystal violet); type: cell-based; settings: various concentrations, 72 hours
Method: MDA-MB-231 cells treated with a compound of the present application (e.g., compound 1-1, 2-5, 1-14 and 3-8, respectively) were seeded at a density of 5×10^4cells/well in 12-well plate and incubated at 37° C. with 5% CO2. After 72 hours of culturing, the cells were washed with PBS, fixed in 4% formaldehyde for 15 minutes and stained with 0.1% crystal violet for 20 minutes. Cells were washed with water and the staining was extracted with 10% acetic acid for 20 minutes and absorbance was measured at 590 nm. The experiments were performed in triplicates.

[3] = target: wild type CK1δ (Homo sapiens, UniProt P48730); assay: CK1δ kinase assay (Kinase-Glo); type: biochemical; settings: 10 μM ATP, 2 nM wild type CK1δ, 85 min at 25° C.; read-out: CK1δ inhibition (IC50)
Chain of wild type CK1δ (P48730 whole entry): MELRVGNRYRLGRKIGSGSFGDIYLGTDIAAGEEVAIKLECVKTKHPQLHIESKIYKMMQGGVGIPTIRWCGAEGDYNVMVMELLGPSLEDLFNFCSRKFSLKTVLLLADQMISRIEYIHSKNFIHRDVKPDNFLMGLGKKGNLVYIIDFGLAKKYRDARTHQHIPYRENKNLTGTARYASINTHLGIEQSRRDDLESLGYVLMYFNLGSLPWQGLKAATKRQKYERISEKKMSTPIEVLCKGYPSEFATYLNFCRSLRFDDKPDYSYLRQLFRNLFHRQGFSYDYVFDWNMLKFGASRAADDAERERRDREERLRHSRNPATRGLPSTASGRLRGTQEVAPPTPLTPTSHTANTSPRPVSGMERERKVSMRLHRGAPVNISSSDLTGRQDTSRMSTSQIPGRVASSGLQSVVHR
Method: The CK1δ kinase assay was performed with a buffer (40 μL, pH 7.5) containing 50 mM Tris, 10 mM MgCl2, 1 mM dithiothreitol, 100 μg/mL BSA with 10 μM ATP, 2 nM wild type CK1δ, and 42 μM peptide substrate PLSRTLpSVASLPGL (Flotow et al., 1990) in the presence of 1 μL of a CK1δ inhibitor (e.g., a compound of the present application) or 4% DMSO (e.g., as control). The reaction mixture was incubated for 85 min at 25° C.; detection was carried out as described for the Kinase-Glo Assay (Promega). Luminescent output was measured on the Perkin Elmer Envision plate reader (PerkinElmer, Waltham, Mass.).

| Structure (SMILES) | relative migration (%) of cells [1] | migrated cells [1] | relative proliferation (%) of cells [2] | IC50 [3] [µM] |
| --- | --- | --- | --- | --- |
| CC(=O)N1CCn2nc(-c3ccc(F)cc3)c(-c3ccncc3)c2C1 [Compound 1-14, 1-(2-(4-fluorophenyl)-3-(pyridin-4-yl)-6,7-dihydropyrazolo[1,5-a]pyrazin-5(4H)-yl)ethan-1-one] | reduced | suppressed the migration | affected in a concentration dependent manner | 0.0615 |
| Fc1ccc(-c2nc3c(n2-c2ccncc2)CCCC3)cc1 [Compound 2-5, 2-(4-fluorophenyl)-1-(pyridin-4-yl)-4,5,6,7-tetrahydro-1H-benzo[d]imidazole] | reduced | suppressed the migration | affected in a concentration dependent manner | 0.408 |
